From patent US20190015400A1, “Antifungal Compositions” (priority 2017, published 2019) come the findings set out here.

Data set [1] relates to C. albicans ATCC 10231 (strain B). Put plainly: Time-kill assay, POS and EBA. The class given is cell-based, Candida albicans. To be noted: drug alone (POS at concentration used in MICcombination; NYT, AMB at 1×MIC), inoculum 10^5. How it is done:
The protocol for time-kill assays followed methods previously described with minor modifications. Yeast cultures were grown overnight in YEPD medium at 35° C. with shaking at 200 rpm. A working stock of fungal cells was made by diluting cultures in 1640 medium to an OD600 of 0.125 (˜1×10^6 CFU/mL). From the working stock, 100 μL of cells was added to 4.9 mL of RPMI 1640 medium in sterile culture tubes, making the starting fungal cell concentration ˜1×10^5 CFU/mL. Drug was then added to the fungal cells. […] Treated fungal cultures were incubated in the culture tubes at 35° C. with 200 rpm shaking for 24 h. Samples were aliquoted from the different treatments at regular time points (0, 3, 6, 9, 12, and 24 h) and plated in duplicate. For each time point, cultures were vortexed, 100 μL of culture was aspirated, and 10-fold serial dilutions were made in sterile ddH2O. From the appropriate dilutions, 100 μL of fungal suspension was spread on PDA plates and incubated at 35° C. for 48 h before colony counts were determined. At 24 h, 50 μL of 1 mM resazurin in phosphate buffered saline (PBS) was added to the treatments and incubated at 35° C. with 200 rpm shaking for 2 h in the dark for visual inspection. […] Experiments were performed in duplicate.

A further data set relates to J774A.1 cells. Put plainly: Mammalian cytotoxicity assay, azoles and compound 2. An excerpt: David K. Orren (University of Kentucky, Lexington, Ky.) and Prof. David J. Feola (University of Kentucky, Lexington, Ky.), respectively.
For data set [2], the system named is 13 Candida spp. strains (strains A-M). Put plainly: MIC and checkerboard assay, azoles + antihistamines, panel. The class given is cell-based. How it is done:
(§1) Determination of minimum inhibitory concentration (MIC) values. MIC values were recorded for all antifungals and antihistamines in order to determine the concentration range of compounds to be used in the checkerboard assays.
(§2) The MIC assays were done using the broth microdilution method as described in CLSI document M27-A3 with minor modifications. Yeast cultures were started by picking a colony from a PDA plate stored at 4° C. The colonies were grown in YEPD medium overnight at 35° C. with shaking at 200 rpm. In a 96-well plate compounds were diluted lengthwise along the plate in serial 2-fold dilutions in the RPMI 1640 medium. The yeast cultures were diluted in RPMI 1640 medium to an OD600 within the range of 0.12 and 0.15 (˜1×10^6 cells/mL). The fungal cells were further diluted by taking 25 μL of fungal cells and adding them to 10 mL of RPMI 1640 medium before adding 100 μL to plate (200 μL total volume). The plates were incubated at 35° C. for 48 h. Visual inspection of the wells for no growth was used to determine the MIC. All compounds were tested in duplicate (TABLES 6 and 7).
Checkerboard assays were done as previously described to determine the fractional inhibitory concentration index (FICI). 2-fold dilutions of the azole drug were made in RPMI 1640 medium lengthwise along the plate. […] The FICI was calculated based on the formula below. […]

Data set [3] concerns C. glabrata ATCC 2001 (strain H). Put plainly: MIC and checkerboard assay, azoles + antihistamines. The class given is cell-based, Candida glabrata. As for the experimental part:
as §1, §2
Checkerboard assays were done as previously described to determine the fractional inhibitory concentration index (FICI). 2-fold dilutions of the azole drug were made in RPMI 1640 medium lengthwise along the plate. For the antihistamine, 2-fold serial dilutions were made in sterile tubes with RPMI 1640 medium, then aliquoted into the plate. […] The maximal amount was used in the checkerboard assays if complete inhibition was not observed in the MIC assays. Cultures were started by picking a colony from a plate and growing in YEPD medium overnight at 35° C. with shaking at 200 rpm. Cultures were diluted in RPMI 1640 medium to an OD600 between 0.12 and 0.15 (˜1×10^6 cells/mL). Cells were then further diluted by taking 25 μL of cell suspension and adding to 10 mL of RPMI 1640 medium. After the drugs were added to the plate with 100 μL of medium, 100 μL of fungal cells were added. Plates were incubated at 35° C. for 48 h and visual inspection was used to determine wells with no growth. All experiments were carried out in duplicate. The FICI was calculated based on the formula below. The combinational effect of the 2 tested compounds were considered synergistic (SYN) if FICI≤0.5, additive (ADD) if 0.5<FICI≤4, and antagonistic if FICI>4 (TABLES 6-9).

Data set [4] has as its system C. albicans ATCC 64124 (strain F) biofilm. Put plainly: Biofilm disruption assay (XTT, SMIC99), azoles + compound 2. The class given is cell-based, Candida albicans. How it is done: In order to investigate the synergistic effect of azoles and our compounds on inhibiting biofilm formation of C. albicans ATCC 64124 (strain F), we performed a biofilm disruption assay in a checkerboard setup and used XTT [2,3-bis(2-methoxy-4-nitro-5-sulfophenyl)-2H-tetrazolium-5-carboxanilide] reduction to examine the metabolic activity of the biofilm. Briefly, C. albicans ATCC 64124 (strain F) was grown overnight in YEPD broth at 35° C. The culture was then diluted to an OD600 of 0.12 (equivalent to 1×10^6 CFU/mL) and 100 μL was placed into each well of a 96-well plate. The cells were incubated at 37° C. for 24 h for growth. The following day, the spent medium containing planktonic cells was aspirated and each wells were carefully washed three times with sterile phosphate buffer saline (PBS). […] The negative control (medium only) and the positive control (biofilm plus medium) wells were also included in the same 96-well plate. The plates were then incubated at 37° C. statically for additional 24 h and then washed with sterile PBS. 100 μL of a XTT (0.5 mg/mL)/menadione (1 μM) solution was added to each well, covered with aluminum foil, and incubated for 2 h at 37° C. Then, 80 μL of the colored supernatant from each well was transferred to a new 96-well plate, and the absorption was read at OD490. The percent metabolic activity of the formed biofilm at various drug concentration combinations was calculated by dividing the metabolic activity of biofilm formed for that well by that of the biofilm formed in the growth control well (in the absence of any drug). For these experiments, the sessile MIC (SMIC99) was determined, which is defined as the drug concentration required to inhibit the metabolic activity of biofilm by 99% compared to the growth control. The assay for each combination was performed in duplicates.
Background: Tetrazolium assays rely on reduction of a dye to a coloured formazan, in cell work by metabolically active cells.

The term MIC denotes the smallest concentration in the dilution series that meets the test's criterion for growth inhibition.

Turning to `CC[C@@H]([C@H](C)O)n1ncn(-c2ccc(N3CCN(c4ccc(OC[C@@H]5CO[C@@](Cn6cncn6)(c6ccc(F)cc6F)C5)cc4)CC3)cc2)c1=O` [POS, posaconazole], the “CFU/mL at 24 h” value in data set [1] is listed as 10^8 CFU/mL. The figures for the cell survival in the data set on J774A.1 cells (drug alone at 8 μg/mL) and with J774A.1 cells (drug alone at 16 μg/mL) were 80±9% and around 46±3%, respectively. Besides, the MIC is 0.25 to 1 µg/mL in data set [2] (Candida, drug alone against sensitive fungal strains) and above 32 µg/mL in data set [3] (Nakaseomyces glabratus, ATCC2001, drug alone). Besides, in data set [2] (synergistic POS + EBA combinations, MIC of the labelled drug), the “MIC in synergistic combinations” value lay within 8 to 500 ng/mL. Besides, the MIC in combination in data set [3] (combination POS + EBA, MIC of the labelled drug) was determined as 0.5 µg/mL. For the same compound, the “fold decrease in MIC (combination vs alone)” value in data set [3] (combination POS + EBA, decrease for the labelled drug) is 64 fold. Further, in data set [4] (azole alone, sessile cells), the “SMIC alone (μg/mL) Azole” value is above 32 µg/mL. The “SMIC combo (μg/mL) Azole” value in data set [4] (azole in combination with compound 2) came to 0.5 µg/mL.
